Data published in patent publication EP4748844A1, “AZETIDINE COMPOUND AND MEDICAL USE THEREOF” (SHANGHAI INSTITUTE OF MATERIA MEDICA, CHINESE ACADEMY OF …, priority 2023, dated 2025).

Assays:
Assay type in all cases: cell-based
[1] = system: ISG gene expression induced by MSA-2 in human THP1-Blue-ISG cells; assay: Inhibition of MSA-2-induced ISG gene expression in human THP1-Blue-ISG cells (Quanti-Blue, OD650); settings: STING agonist MSA-2 10 µM, incubated for 24 hours
Procedure: (§1) 10 µL of compound diluted with PBS/physiological saline was added to each well of a 96 well cell culture plate. The STING agonist was MSA-2, which was added to the counted cell suspension at a final concentration of 10 µM. For the control group without compounds, 10 µL of PBS/physiological saline containing 2% DMSO was added. 3 replicate wells were set in each group. THP1-Blue-ISG cells were counted and adjusted to a cell concentration of 4× 10^5/mL, and 190 µL of cells containing STING agonist were added to each well for incubation. Therefore, the final volume of each test well was 200 µL, the content of DMSO was 0.1%, and the final concentration of the compound tested was 10/3.3/1.1/0.4/0.13/0.04/0.013/0.004 µM, incubated for 24 hours. In addition, 190 µL of cells without STING agonist and 10 µL of physiological saline containing 2% DMSO were added to the blank group. 3 replicate wells were set in each group.
After 24 hours, 20 µL of culture medium was taken from each well and transferred to a new 96 well plate. 180 µL of chromogenic solution Quanti-Blue was added. The plate was placed in a 37 °C incubator. After 2 hours, the OD650 values were measured.
Result analysis: Inhibition rate (%) = (Con(OD650)−Treated(OD650))/Con(OD650) × 100% [formula]
(§2) The IC50 calculation of inhibitors was implemented using the Graphpad Prism 8 software's calculation method log (inhibitor) vs. response - Variable slope (four parameters), with a constrain interval of 0-100.

[2] = system: DMXAA induced ISG gene expression in mouse RAW-Lucia cells; assay: Inhibition of DMXAA-induced ISG gene expression in mouse RAW-Lucia cells (QUANTI-Luc); settings: STING agonist DMXAA 50 µM, incubated for 24 hours
Procedure: 10 µL of compound diluted with PBS/physiological saline was added to each well of a 96 well cell culture plate. The STING agonist was DMXAA, which was added to the counted cell suspension at a final concentration of 50 µM. For the control group without compounds, 10 µL of PBS/physiological saline containing 2% DMSO was added. 3 replicate wells were set in each group. RAW-Lucia cells were counted and adjusted to a cell concentration of 4×10^5/mL, and […] of cells were added to each well for incubation. Therefore, the final volume of each test well was 200 µL, the content of DMSO was 0.1%, and the final concentration of the compound tested was 10/3.3/1.1/0.4/0.13/0.04/0.013/0.004 µM. The final concentration of STING agonist DMXAA was 50 µM. The mixture was incubated for 24 hours. In addition, 200 µL of culture medium was added to the blank group. 3 replicate wells were set in each group.
(§3) After 24 hours, 20 µL of culture medium was taken from each well and transferred to a new 96 well plate with photopermeable bottom. 50 µL of the luciferase detection reagent QUANTI-Luc™ was added, and the […] was immediately measured (avoid light).
Result analysis: Inhibition rate (%) = (Con(Lum)−Treated(Lum))/Con(Lum) × 100% [formula]
as §2

[3] = system: ISG gene expression induced by MSA-2 in human THP1-Dual cells; assay: Inhibition of MSA-2-induced ISG gene expression in human THP1-Dual cells (QUANTI-Luc); settings: STING agonist MSA-2 10 µM, incubated for 24 hours
Procedure: as §1, with “THP1-Dual” for “THP1-Blue-ISG”, “4×10^5/mL,” for “4× 10^5/mL,”
as §3, with “medium for THP1-Dual cells” for “medium”, “light). Result analysis:Inhibition rate (%) = (Con(Lum)−Treated(Lum))/Con(Lum) × 100% [formula]” for “light).”
as §2

SMILES	IC50 [1]	IC50 [2]	IC50 [3]
O=C(Nc1c[nH]c2ccccc12)c1cc2c(s1)SCC(=O)N2Cc1ccccc1 [Example I-6, 1-benzyl-N-(1H-indol-3-yl)-2-oxo-2,3-dihydro-1H-thieno[2,3-b][1,4]thiazin-6-carboxamide]	392 nM	33 nM	
CC1(C)C(=O)N(Cc2ccccc2)c2cc(C(=O)Nc3c[nH]c4ccccc34)ccc21 [Example I-76, 1-benzyl-N-(1H-indol-3-yl)-3,3-dimethyl-2-oxoindolin-6-carboxamide]	235 nM	2.24 nM	
O=C(Nc1c[nH]c2ccccc12)c1ccc2c(c1)SCC(=O)N2Cc1ccc2occc2c1 [Example I-65, 4-(benzofuran-5-ylmethyl)-N-(1H-indol-3-yl)-3-oxo-3,4-dihydro-2H-benzo[b][1,4]thiazin-7-carboxamide]	57 nM		
CC1(C)C(=O)N(Cc2ccsc2)c2cc(NC(=O)c3c[nH]c4ccccc34)ccc21 [B, reference compound]	> 10000 nM	> 1000 nM	
O=C(Nc1ccc2c(c1)N(Cc1ccccc1)C(=O)CS2)Nc1c[nH]c2ccccc12 [A, reference compound]	2300 nM	161 nM	
O=C(Nc1c[nH]c2ccccc12)c1ccc2c(c1)N(Cc1cccs1)C(=O)CS2 [Example I-59, N-(1H-indol-3-yl)-3-oxo-4-(thien-2-ylmethyl)-3,4-dihydro-2H-benzo[b][1,4]thiazin-6-carboxamide]	25 nM		
O=C(Nc1ccc2c(c1)N(CC1CN(c3ccc4c(c3)OCO4)C1)C(=O)CS2)Nc1c[nH]c2ccccc12 [Example I-13, 1-(4-((1-(benzo[d][1,3]dioxolan-5-yl)azetidin-3-yl)methyl)-3-oxo-3,4-dihydro-2H-benzo[b][1,4]thiazin-6-yl)-3-(1H-indol-3-yl)urea]	391 nM		
CC1(C)C(=O)N(Cc2cccc3ccoc23)c2cc(C(=O)Nc3c[nH]c4ccc(Cl)cc34)ccc21 [Example I-128, 1-(benzofuran-7-ylmethyl)-N-(5-chloro-1H-indol-3-yl)-3,3-dimethyl-2-oxoindolin-6-carboxamide]		39.4 nM	39.4 nM
O=C(Nc1c[nH]c2ccccc12)c1cc2c(s1)SCC(=O)N2Cc1ccco1 [Example I-118, 1-(furan-2-ylmethyl)-N-(1H-indol-3-yl)-2-oxo-2,3-dihydro-1H-thieno[2,3-b] [1,4]thiazin-6-carboxamide]		45.2 nM	232 nM
O=C(Nc1c[nH]c2ccccc12)c1ccc2c(c1)N(CC1CN(c3cc(F)cc(C(F)(F)F)c3)C1)C(=O)CS2 [Example I-9, 4-((1-(3-fluoro-5-trifluoromethylphenyl)azetidin-3-yl)methyl)-N-(1H-indol-3-yl)-3-oxo-3,4-dihydro-2H-benzo[b][1,4]thiazin-6-carboxamide]	249 nM		
CC1(C)C(=O)N(Cc2csc(Cl)c2)c2cc(C(=O)Nc3c[nH]c4ccccc34)ccc21 [Example I-84, 1-((5-chlorothien-3-yl)methyl)-N-(1H-indol-3-yl)-3,3-dimethyl-2-oxoindolin-6-carboxamide]		4.69 nM	20.5 nM
CC1(C)C(=O)N(CCc2ccsc2)c2cc(C(=O)Nc3c[nH]c4ccccc34)ccc21 [Example I-108, N-(1H-indol-3-yl)-3,3-dimethyl-2-carbonyl-1-(2-(thien-3-yl)ethyl) indolin-6-carboxamide]		1.74 nM	71.4 nM
CC1(C)C(=O)N(CC2CN(c3ccccc3)C2)c2cc(NC(=O)Nc3c[nH]c4ccccc34)ccc21 [Example I-12, 1-(3,3-dimethyl-2-oxo-1-((1-phenylazetidin-3-yl)methyl)indolin-6-yl)-3-(1H-indol-3-yl)urea]	375 nM		
CCc1ccc(NC(=O)Nc2c[nH]c3ccccc23)cc1 [Example H151, H-151, reference compound]		271 nM	635 nM
O=C(Nc1c[nH]c2ccccc12)c1ccc2c(c1)SCC(=O)N2Cc1ccoc1 [Example I-64, 4-(furan-3-ylmethyl)-N-(1H-indol-3-yl)-3-oxo-3,4-dihydro-2H-benzo[b][1,4]thiazin-7-carboxamide]	139 nM		
CC1(C)C(=O)N(Cc2cccc3ccoc23)c2cc(C(=O)Nc3c[nH]c4ccccc34)ccc21 [Example I-97, 1-(benzofuran-7-ylmethyl)-N-(1H-indol-3-yl)-3,3-dimethyl-2-oxoindolin-6-carboxamide]		17.1 nM	3.3 nM
CC(c1ccccc1)N1C(=O)C(C)(C)c2ccc(C(=O)Nc3c[nH]c4ccccc34)cc21 (stereo not drawn) [Example I-100, N-(1H-indol-3-yl)-3,3-dimethyl-2-oxo-1-(1-phenethyl)indolin-6-carboxamide]		15.1 nM	59.6 nM
CCC1(C)C(=O)N(Cc2ccccc2)c2cc(C(=O)Nc3c[nH]c4ccccc34)ccc21 (stereo not drawn) [Example I-101]		38.5 nM	16.4 nM
O=C(Nc1c[nH]c2ccccc12)c1ccc2c(c1)SCC(=O)N2Cc1ccc2c(c1)OCO2 [Example I-66, 4-(benzo[d][1,3]dioxolan-5-ylmethyl)-N-(1H-indol-3-yl)-3-oxo-3,4-dihydro-2H-benzo[b][1,4]thiazin-7-carboxamide]	73 nM		
CC1(C)C(=O)N(Cc2csc(C(F)(F)F)c2)c2cc(C(=O)Nc3c[nH]c4ccccc34)ccc21 [Example I-102]		10.6 nM	20.8 nM
CC1(C)C(=O)N(Cc2ccccc2)c2cc(C(=O)Nc3c[nH]c4ccc(F)cc34)ccc21 [Example I-105]		3.38 nM	70.4 nM
O=C(Nc1c[nH]c2ccccc12)c1ccc2c(c1)N(Cc1ccco1)C(=O)CS2 [Example I-60, 4-(furan-2-ylmethyl)-N-(1H-indol-3-yl)-3-oxo-3,4-dihydro-2H-benzo[b][1,4]thiazin-6-carboxamide]	42 nM		
O=C(Nc1cc2c(s1)SCC(=O)N2Cc1ccccc1)Nc1c[nH]c2ccccc12 [Example I-7, 1-(1-benzyl-2-oxo-2,3-dihydro-1H-thieno[2,3-b][1,4]thiazin-6-yl)-3-(1H-indol-3-yl)urea]	390 nM		
O=C(Nc1c[nH]c2ccccc12)c1cc2c(s1)SCC(=O)N2Cc1cccc2ccoc12 [Example I-120, 1-(benzofuran-7-ylmethyl)-N-(1H-indol-3-yl)-2-oxo-2,3-dihydro-1H-thieno[2,3-b][1,4]thiazin-6-carboxamide]		8.7 nM	96.5 nM
CC1(C)C(=O)N(Cc2csc3ccccc23)c2cc(C(=O)Nc3c[nH]c4ccccc34)ccc21 [Example I-109, 1-(benzo[b]thien-3-ylmethyl)-N-(1H-indol-3-yl)-3,3-dimethyl-2-indolin-6-carboxamide]		11.8 nM	32.1 nM
O=C(Nc1c[nH]c2ccccc12)c1cc2c(s1)SCC(=O)N2Cc1ccc2occc2c1 [Example I-113, 1-(benzofuran-5-ylmethyl)-N-(1H-indol-3-yl)-2-oxo-2,3-dihydro-1H-thieno[2,3-b][1,4]thiazin-6-carboxamide]		27.9 nM	39.4 nM
O=C(Nc1c[nH]c2ccc(Cl)cc12)c1cc2c(s1)SCC(=O)N2Cc1cc(F)cc(C(F)(F)F)c1 [Example I-123, N-(5-chloro-1H-indol-3-yl)-1-(3-fluoro-5-(trifluoromethyl)benzyl)-2-oxo-2,3-dihydro-1H-thieno[2,3-b][1,4]thiazin-6-carboxamide]		5.71 nM	69 nM
